Among the data in ChEMBL document CHEMBL5604063, “ASAP - DENV-2 NS2B-NS3 protease fluorescence dose response” (2024) are IC50 values, retold here.

Sequence of Genome polyprotein (P29990 1346-1475 limits assumed): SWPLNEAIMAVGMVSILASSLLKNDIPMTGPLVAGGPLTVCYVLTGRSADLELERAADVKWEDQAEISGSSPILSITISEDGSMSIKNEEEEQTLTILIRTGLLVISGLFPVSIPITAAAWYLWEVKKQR
Sequence of Genome polyprotein (P29990 1476-2093 limits assumed): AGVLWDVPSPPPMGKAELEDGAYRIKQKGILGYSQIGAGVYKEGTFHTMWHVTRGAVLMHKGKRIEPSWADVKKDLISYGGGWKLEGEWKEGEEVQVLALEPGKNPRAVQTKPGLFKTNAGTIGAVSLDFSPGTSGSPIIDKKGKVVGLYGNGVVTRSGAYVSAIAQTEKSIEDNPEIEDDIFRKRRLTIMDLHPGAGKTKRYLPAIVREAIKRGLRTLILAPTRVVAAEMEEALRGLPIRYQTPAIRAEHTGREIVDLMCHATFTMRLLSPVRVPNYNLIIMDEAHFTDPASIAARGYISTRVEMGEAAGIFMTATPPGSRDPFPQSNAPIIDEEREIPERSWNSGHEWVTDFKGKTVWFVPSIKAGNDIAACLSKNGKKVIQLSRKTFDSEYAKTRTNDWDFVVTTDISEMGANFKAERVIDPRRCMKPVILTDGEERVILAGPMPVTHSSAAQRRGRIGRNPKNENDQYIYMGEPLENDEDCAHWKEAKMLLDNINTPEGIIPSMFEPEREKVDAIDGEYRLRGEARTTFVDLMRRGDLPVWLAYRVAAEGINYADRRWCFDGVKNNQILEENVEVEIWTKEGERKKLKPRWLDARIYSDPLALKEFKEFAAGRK

The assay has as its target Genome polyprotein (dengue virus type 2, UniProt P29990). The format is functional, Thailand/16681/1984.
Take `NCc1cccc(NC(=O)c2cc(F)cc(NC(=O)OCc3ccccc3)c2F)c1`: the IC50 – broadly, the concentration needed to halve the response being measured – is greater than 99.5 µM.

`c1ccc2c(CNCc3ccc(-c4cscn4)cc3)c[nH]c2c1`: the IC50 was greater than 99.5 µM.

`c1cnc2c(c1)CC[C@@H]2NCc1n[nH]c2ccccc12` gave an IC50 greater than 99.5 µM.

Turning to `C[C@@H](Cc1c[nH]c2ccccc12)N1CCC(c2nc3ccccc3s2)CC1`, the IC50 is greater than 99.5 µM.

`Cc1nocc1S(=O)(=O)N[C@H](C(=O)Nc1cccc(CN)c1)c1ccc(OCc2ccccc2)cc1`: the IC50 is greater than 99.5 µM.

The compound `O=C(c1cccnc1)N1CCN(Cc2c[nH]c3ccccc23)CC1` returned an IC50 greater than 99.5 µM.

In turn, `Cc1ccc(-c2nc(NC(=O)[C@H](NC(=O)OCc3ccccc3)c3ccc(OCc4ccccc4)cc3)sc2CN(C)C)cc1` had a 50% inhibitory concentration (IC50) greater than 99.5 µM.

In turn, `CN(C)Cc1cc(NC(=O)c2cc(Cl)cc(NC(=O)OCc3ccccc3)c2)sn1` came in with an IC50 greater than 99.5 µM.

As to `NCc1cccc(NC(=O)c2cc(Cl)cc(CN)c2)c1`, the IC50 is greater than 99.5 µM.

Consider `NCc1cccc(NC(=O)[C@H](NC(=O)OCc2ccccc2)C2CCNCC2)c1`, for which the IC50 was greater than 99.5 µM.

For `NCc1cc(S(=O)(=O)Nc2ccc(Cl)cc2C(=O)O)ccc1Oc1ccccc1`, the IC50 is greater than 99.5 µM.

With `NCc1cccc(S(=O)(=O)Nc2cc(Cl)cc(NC(=O)OCc3ccccc3)c2)c1`, the IC50 was greater than 99.5 µM.

As to `NCc1cccc(NC(=O)[C@H](NC(=O)OCc2ccccc2)c2cccc(OCC3CCOCC3)c2)c1`, the IC50 was greater than 99.5 µM.

`O=C(O)c1cc(Cl)ccc1NS(=O)(=O)c1ccc(-c2cscn2)cc1` gave an IC50 of 87.5 µM.

For `NCc1ccccc1Oc1ccc(S(=O)(=O)Nc2ccc(Cl)cc2C(=O)O)cc1`, the IC50 is greater than 99.5 µM.

The compound `CN1CCc2nc(NC(=O)c3cc(Cl)cc(NC(=O)OCc4ccccc4)c3)sc2C1` yielded an IC50 greater than 99.5 µM.

As for `COc1cc(NC(=O)OCc2ccccc2)nc(C(=O)Nc2cccc(CN)c2)c1`, the IC50 is greater than 99.5 µM.

Turning to `COc1ncccc1S(=O)(=O)N[C@H](C(=O)Nc1cccc(CN)c1)c1ccc(OCc2ccccc2)cc1`, the IC50 was greater than 99.5 µM.

For the compound `O=S(=O)(c1cccnc1)N1CCN(Cc2c[nH]c3ccccc23)CC1`, the IC50 was greater than 99.5 µM.

The compound `COC(=O)[C@H](NC(=O)OC(C)(C)C)c1ccc(-c2csc(C)c2)cc1` displayed an IC50 greater than 99.5 µM.

Compound `Fc1cc(F)c2[nH]cc(CN3CCC(c4cscn4)CC3)c2c1F` had an IC50 greater than 99.5 µM.

Compound `CC1=NN(c2ccc(NS(=O)(=O)c3ccc(Cl)cc3C(=O)O)cn2)C(=O)C1` gave an IC50 greater than 99.5 µM.

For the compound `Cn1nc2c(c1NC(=O)[C@@H](NC(=O)OCc1ccccc1)c1ccc(OCc3ccccc3)cc1)CNC2`, the IC50 is greater than 99.5 µM.

Take `Cc1c(NC(=O)OCc2ccccc2)cc(C(F)(F)F)cc1C(=O)Nc1cccc(CN)c1`: the IC50 worked out at 51.4 µM.

For `CS(=O)(=O)c1cc(NC(=O)OCc2ccccc2)cc(C(=O)Nc2cccc(CN)c2)c1`, the IC50 was greater than 99.5 µM.

For the compound `COC(=O)C1(S(=O)(=O)N[C@H](C(=O)Nc2cccc(CN)c2)c2ccc(OCc3ccccc3)cc2)CCC1`, the IC50 was greater than 99.5 µM.

Compound `c1nc(C2CCN(Cc3n[nH]c4c3CCC4)CC2)cs1` returned an IC50 greater than 99.5 µM.

The compound `CCC1([C@H](NC(=O)OCc2ccccc2)C(=O)NCc2cccc(CN)c2)CCCCC1` had an IC50 greater than 99.5 µM.

`CC(C)(C)OC(=O)NCc1cccc(NC(=O)c2cc(N)cc(Cl)c2)c1` yielded an IC50 greater than 99.5 µM.

For `Cc1c[nH]nc1CN1CCC(c2cscn2)CC1`, the IC50 is greater than 99.5 µM.

Take `Cc1c(NC(=O)OCc2ccccc2)cc(C(=O)Nc2cccc(CN)c2)cc1C(F)(F)F`: the IC50 is 91.4 µM.

With `O=C(Nc1cc(Cl)cc(C(=O)Nc2ncc([C@H]3CCCN3)s2)c1)OCc1ccccc1`, the IC50 is greater than 99.5 µM.

`CC(C)(C)c1ccc2[nH]cc(CN3CCC(c4cscn4)CC3)c2c1` displayed an IC50 greater than 99.5 µM.

Take `CN1CCn2nc(NC(=O)c3cc(Cl)cc(NC(=O)OCc4ccccc4)c3)cc2C1`: the IC50 is greater than 99.5 µM.

`c1nc(C2CCN(Cc3n[nH]c4c3COCC4)CC2)cs1` had an IC50 greater than 99.5 µM.

As to `CC(C)N1CCc2nc(NC(=O)c3cc(Cl)cc(NC(=O)OCc4ccccc4)c3)sc2C1`, the IC50 is greater than 99.5 µM.

The compound `CCc1cccc2c(CN3CCC(c4cscn4)CC3)c[nH]c12` had an IC50 greater than 99.5 µM.

Turning to `CC(C)c1cc(S(=O)(=O)N[C@H](C(=O)Nc2cccc(CN)c2)c2ccc(OCc3ccccc3)cc2)on1`, the IC50 was greater than 99.5 µM.

As for `Cc1nc(CCCNCc2n[nH]c3ccccc23)cs1`, the IC50 was greater than 99.5 µM.

For `c1ccc(-c2c[nH]nc2CN2CCC(c3cscn3)CC2)cc1`, the IC50 was greater than 99.5 µM.

On to `c1ccc2sc(C3CCN(CCc4c[nH]c5ccccc45)CC3)nc2c1`, for which the IC50 was greater than 99.5 µM.

Regarding `NC[C@H]1CC[C@H](NC(=O)c2cc(Cl)cc(NC(=O)OCc3ccccc3)c2)CC1`, the IC50 was greater than 99.5 µM.

For the compound `CN(C)Cc1cc(NC(=O)[C@@H](NC(=O)OCc2ccccc2)c2ccc(OCc3ccccc3)cc2)ccc1Cl`, the half-maximal inhibitory concentration (IC50) was greater than 99.5 µM.

`NCc1cccc(NC(=O)[C@@H]2CCC[C@H](NC(=O)OCc3ccccc3)C2)c1` yielded an IC50 greater than 99.5 µM.

Regarding `Cn1nc2c(c1NC(=O)c1cc(Cl)cc(NC(=O)OCc3ccccc3)c1)CNC2`, the IC50 is greater than 99.5 µM.

As to `c1ccc2c(CN[C@H]3CCc4ncsc4C3)n[nH]c2c1`, the IC50 is greater than 99.5 µM.

`NCc1cc(S(=O)(=O)Nc2ccc(Cl)cc2C(=O)NCC(F)(F)F)ccc1Oc1ccccc1` showed an IC50 greater than 99.5 µM.

In the case of `O=C1CN(Cc2c[nH]c3ccccc23)CCN1c1cccnc1`, the IC50 was greater than 99.5 µM.

Turning to `COc1cc2c(CN3CCC(c4cscn4)CC3)c[nH]c2cc1Cl`, the IC50 is greater than 99.5 µM.

As to `CC1(C)CNC[C@H](C(=O)Nc2cccc(CN)c2)C1`, the IC50 was greater than 99.5 µM.

`c1cc(CN2CCC(c3cscn3)CC2)[nH]n1`: the IC50 is greater than 99.5 µM.

With `c1cncc(N2CCCN(Cc3c[nH]c4ccccc34)CC2)c1`, the IC50 was greater than 99.5 µM.

`O=C(O)c1cc(Cl)ccc1S(=O)(=O)N[C@H]1CC[C@H](Oc2cnccn2)CC1`: the IC50 is greater than 99.5 µM.

Take `NCc1cccc(NC(=O)[C@H](NS(=O)(=O)c2cccnc2)c2ccc(OCc3ccccc3)cc2)c1`: the IC50 was greater than 99.5 µM.

On to `N#Cc1ccc2[nH]cc(CN3CCC(c4cscn4)CC3)c2c1`, for which the IC50 is greater than 99.5 µM.

`NCc1cccc(NC(=O)[C@H](NC(=O)OCc2ccccc2)c2cccc(OCc3ncccn3)c2)c1`: the IC50 was greater than 99.5 µM.

With `CCn1c(=O)c(N2CCC[C@H]2c2nncs2)nc2ccccc21`, the IC50 was greater than 99.5 µM.

Compound `COc1cc(NC(=O)OCc2ccccc2)cc(C(=O)Nc2cccc(CN)c2)c1` yielded an IC50 greater than 99.5 µM.

`Cc1cc(CN(C)C)cc(NC(=O)[C@H](NC(=O)OCc2ccccc2)c2ccc(OCc3ccccc3)cc2)c1` gave a half-maximal inhibitory concentration (IC50) greater than 99.5 µM.

In the case of `NCc1cccc(NC(=O)c2cc(NC(=O)OCc3ccccc3)cc(Cl)c2Cl)c1`, the IC50 was determined as 87.3 µM.

`NCc1cccc(NC(=O)c2ccc(OCC(F)(F)F)c(NC(=O)OCc3ccccc3)c2)c1` gave an IC50 greater than 99.5 µM.

In the case of `CCn1nc(-c2ccccc2)cc1NS(=O)(=O)c1ccc(Cl)cc1C(=O)O`, the IC50 is greater than 99.5 µM.

As to `C[C@H]1CNC[C@H](C(=O)Nc2cccc(CN)c2)C1`, the concentration for half-maximal inhibition (IC50) is greater than 99.5 µM.

Take `Cc1nn(C)cc1S(=O)(=O)N[C@@H](C(=O)Nc1cccc(CN)c1)c1ccc(OCc2ccccc2)cc1`: the IC50 was greater than 99.5 µM.

For the compound `O=C(N[C@@H](C(=O)Nc1nc2c(s1)CNC2)c1ccc(OCc2ccccc2)cc1)OCc1ccccc1`, the IC50 was greater than 99.5 µM.

Compound `N#Cc1cccc2c(CN3CCC(c4cscn4)CC3)c[nH]c12` had an IC50 greater than 99.5 µM.

Compound `Cn1ccc(Nc2ccc(S(=O)(=O)Nc3ccc(Cl)cc3C(=O)O)cn2)n1` showed a 50% inhibitory concentration (IC50) greater than 99.5 µM.

Regarding `Cn1ccnc1S(=O)(=O)N[C@@H](C(=O)Nc1cccc(CN)c1)c1ccc(OCc2ccccc2)cc1`, the IC50 was greater than 99.5 µM.

In turn, `FC1(c2cccnc2)CN(Cc2c[nH]c3ccccc23)C1` had an IC50 greater than 99.5 µM.

On to `NCc1ccc(Oc2ccc(S(=O)(=O)Nc3ccc(Cl)cc3C(=O)NCC(F)(F)F)cc2)cc1`, for which the IC50 is greater than 99.5 µM.

`Cc1ccc(CN(C)C)cc1NC(=O)[C@@H](NC(=O)OCc1ccccc1)c1ccc(OCc2ccccc2)cc1` showed an IC50 greater than 99.5 µM.

The compound `CN1CCn2nc(NC(=O)[C@@H](NC(=O)OCc3ccccc3)c3ccc(OCc4ccccc4)cc3)cc2C1` had a half-maximal inhibitory concentration (IC50) greater than 99.5 µM.

`c1cncc([C@@H]2CN(Cc3c[nH]c4ccccc34)CCO2)c1` came in with an IC50 greater than 99.5 µM.

In turn, `Cc1c(C(F)(F)F)n[nH]c1CN1CCC(c2cscn2)CC1` returned an IC50 greater than 99.5 µM.

`CCS(=O)(=O)N[C@@H](C(=O)Nc1cccc(CN)c1)c1ccc(OCc2ccccc2)cc1` came in with an IC50 greater than 99.5 µM.

`CC(C)N1CCc2nc(NC(=O)[C@H](NC(=O)OCc3ccccc3)c3ccc(OCc4ccccc4)cc3)sc2C1` showed an IC50 greater than 99.5 µM.

In turn, `Cn1nccc1CN1CCC(NS(=O)(=O)c2ccc(Cl)cc2C(=O)O)CC1` gave a half-inhibitory concentration (IC50) greater than 99.5 µM.

In the case of `NCc1cccc(NC(=O)[C@@H]2C[C@H](NC(=O)OCc3ccccc3)[C@H]3C[C@H]32)c1`, the IC50 was greater than 99.5 µM.

`O=C(Nc1cccnc1)C1CCN(Cc2c[nH]c3ccccc23)CC1` displayed an IC50 greater than 99.5 µM.

`NCc1cccc(NC(=O)[C@H](NS(=O)(=O)C[C@H]2COCCO2)c2ccc(OCc3ccccc3)cc2)c1` yielded a half-maximal inhibitory concentration (IC50) greater than 99.5 µM.

Consider `Cc1csc(COc2cccc([C@H](NC(=O)OCc3ccccc3)C(=O)Nc3cccc(CN)c3)c2)n1`, for which the IC50 is 27.2 µM.

Turning to `CN(Cc1cccnc1)Cc1c[nH]c2ccccc12`, the IC50 is greater than 99.5 µM.

Regarding `Cc1[nH]c2ccccc2c1CN1CCC(c2nc3ccccc3s2)CC1`, the IC50 was greater than 99.5 µM.

As to `C[C@H]1CC[C@H](CS(=O)(=O)N[C@H](C(=O)Nc2cccc(CN)c2)c2ccc(OCc3ccccc3)cc2)CC1`, the IC50 was 34.2 µM.

As for `COCc1ccccc1Nc1ccc(S(=O)(=O)Nc2ccc(Cl)cc2C(=O)O)cn1`, the IC50 is greater than 99.5 µM.

Take `NCc1cccc(NC(=O)[C@H](NS(=O)(=O)Cc2ccccc2)c2ccc(OCc3ccccc3)cc2)c1`: the IC50 was greater than 99.5 µM.

In turn, `NC[C@H]1CC[C@H](CNC(=O)c2cc(Cl)cc(NC(=O)OCc3ccccc3)c2)CC1` yielded an IC50 greater than 99.5 µM.

In turn, `NCc1cccc(NC(=O)[C@H](NC(=O)OCc2ccccc2)c2cccc(OCc3ccccn3)c2)c1` registered an IC50 greater than 99.5 µM.

`NCc1ccc(Oc2ccc(S(=O)(=O)Nc3ccc(Cl)cc3C(=O)O)cc2)cc1` displayed an IC50 greater than 99.5 µM.
